Patent US20200255489A1, “Novel Senolytic Peptides” (priority 2017, published 2020)
Where a SMILES comes first, the peptide text is derived from it. [ ]: non-standard residue; d: D form.

Tests used:
[1] = Acute Systemic Toxicity Test (ISO 10993-11); assay type: in vivo, mice (BALB/c); settings: BALB/c
Procedure: Senolytic Peptides were evaluated for toxicity according to Acute Sytemic Toxicity Test (ISO 10993-11). This study was performed in strict accordance with the protocol approved by the TUBITAK-MAM Animal Ethics Committee. All the mice used in this study were of a BALB/c background at 8-12 weeks of age. All mice were kept in group housing until the start of the experiment after which they were placed in separate cages (5 mice per cage). The Senolytic Peptide (SEQ ID NO: 11) is administered intravenously using a mice model (BALB/c) at doses of 1, 10, 50 and 100 mg/kg and vehicle alone is also administered using single injections (n=5, per group). Control and Senolytic Peptide (SEQ ID NO: 11) injected mice were sacrificed 24 hours later for pathological examination. […] Blood samples were subsequently collected for determination and analysis of hematological and biochemical parameters. Plasma alanine aminotransferase (ALT), aspartate aminotransferase (AST), alkaline phosphatase (ALP) activities and blood urea, glucose, triglyceride levels were determined, inter alia, full hematological parameters.

[2] = system: Doxorubicin induced renal senescence; test: Doxorubicin induced chemotoxicity / renal senescence in mice; assay type: in vivo; settings: male BALB/c mice, doxorubicin 8 mg/kg i.p. twice
Procedure: This study was performed in strict accordance with the protocol approved by the TUBITAK-MAM Animal Ethics Committee. All the mice used in this study were of a BALB/c background at 8-12 weeks of age. All mice were kept in group housing until the start of the experiment after which they were placed in separate cages (4 mice per cage). Only male mice were used throughout the study. Where feasible, littermates were used. All mice were randomly assigned to experimental group. Mice were fed ad libidum. Initial weights of the mice were recorded. Mice were divided into three groups (A-No Treatment, B-Doxorubicin Treatment+Mock Treatment, C-Doxorubicin Treatment+Senolytic Peptide Treatment). Doxorubicin induced chemotoxicity was used for the induction of renal senescence in mice. Mice in Group B and C were intraperitoneally administered with doxorubicin (8 mg/kg) twice (at 0 and 10th day). Weights of the mice were recorded three times a week. 24 days after 2nd Doxorubicin treatment, PBS (mock Treatment) was administered intravenously to Group B and Senolytic Peptide (SEQ ID NO: 12) (3×10 mg/kg) was administered to Group C in three days (every other day) (FIG. 17A). The mice health, activity and appearance were monitored and they were sacrificed 14 days later. Gross pathology and pathology of the mice analysed. Mice organs and tissues are flash-frozen in liquid nitrogen and embedded in OCT and kept at −80 C. 10 micron thick mid-sagittal cryo-sections of the kidney were taken and SA-B-Gal activity was assayed as in Example 1-3. Doxorubicin induced alopecia and caused weight loss in mice and both conditions are reversed upon the Senolytic Peptide (SEQ ID NO: 12) Treatment (FIG. 17B).

[3] = system: senescent and non-senescent IMR90 cells; test: XTT viability assay on Doxorubicin induced senescent and non-senescent IMR90 fibroblasts; assay type: cell-based, human; settings: senescence by 100 NM Doxorubicin, total doses 0 to 100 pM on 3 consecutive days, XTT after 7 days
Procedure: IMR-90 cells (ATCC #CCL-186, a diploid primary human fibroblast adherent cell line derived from fetal lung tissue) were treated with 100 NM Doxorubicin twice every other day for senescence induction. […] Later these cells were used for experiments comparing them to their non-Doxorubicin (non-senescent) treated counterparts. Senescent and non-senescent IMR90 fibroblasts were plated for XTT viability assays. 7000 senescent (obtained as described above) and 2000 non-senescent IMR90 fibroblasts were plated in 96-well plates incubated. The cells were treated with mock (PBS) or the Senolytic Peptide(s) at total doses ranging from 0 to 100 pM. The mock and peptide treatments were carried out for 3 consecutive days (24, 48 and 72 hours) after plating. After treatment period, the cells were incubated for 7 days until XTT-based viability was analyzed according to the manufacturer's instructions. […]
(§1) WI-38 cells (ATCC #CCL-75, a diploid primary human fibroblast adherent cell line derived from fetal lung tissue) and IMR90 cells (ATCC #CCL-186, a diploid primary human fibroblast adherent cell line derived from fetal lung tissue) were treated with a chemotherapy agent, 100 NM Doxorubicin twice every other day to induce senescence. […] After treatment period, the cells were incubated for 7 days until XTT-based viability was analyzed according to the manufacturer's instructions. […]

[4] = system: senescent and non-senescent WI-38 cells; test: XTT viability assay on Doxorubicin induced senescent and non-senescent WI-38 fibroblasts; assay type: cell-based, human; settings: senescence by 100 NM Doxorubicin, total doses 0 to 100 pM on 3 consecutive days, XTT after 7 days
Procedure: WI-38 cells (ATCC #CCL-75, a diploid primary human fibroblast adherent cell line derived from fetal lung tissue) were treated with a chemotherapy agent, 100 NM Doxorubicin twice every other day to induce senescence. […] Later these cells were used for experiments comparing them to their non-Doxorubicin (non-senescent) treated counterparts. Senescent and non-senescent WI-38 fibroblasts were plated for XTT viability assays. 7000 senescent (obtained as described above) and 2000 non-senescent WI-38 fibroblasts were plated in 96-well plates incubated. The cells were treated with mock (PBS) or the Senolytic Peptide (SEQ ID NO: 11) at total doses ranging from 0 to 100 pM. The mock and peptide treatments were carried out for 3 consecutive days (24, 48 and 72 hours) after plating. After treatment period, the cells were incubated for 7 days until XTT-based viability was analyzed according to the manufacturer's instructions. […]
as §1

[5] = peptide 3x10 mg/kg every other day

Compound | toxicity to the physical appearance of the mice ([1]; single intravenous injection 1, 10, 50 and 100 mg/kg, within 24 hours of injection) | toxicity by hematological parameters, AST, ALT, ALP levels and gross pathology ([1]; single intravenous injection, even at 100 mg/kg, 24 hours) | Doxorubicin induced alopecia [2, 5] | Doxorubicin induced weight loss [2, 5] | senescent cells in kidneys (SA-B-Gal activity of kidney sections) ([2]; peptide 3x10 mg/kg, sacrificed 14 days later) | effect on viability of senescent versus non-senescent cells (XTT) [3] | effect on viability of senescent versus non-senescent cells (XTT) [4]
CC(C)C[C@H](NC(=O)[C@@H](NC(=O)[C@H](CC(C)C)NC(=O)[C@H](CCCNC(=N)N)NC(=O)[C@H](CCCCN)NC(=O)[C@H](CCCNC(=N)N)NC(=O)[C@@H]1CCCN1C(=O)[C@H](C)NC(=O)[C@H](CCCNC(=N)N)NC(=O)[C@H](CCCNC(=N)N)NC(=O)[C@H](CCCNC(=N)N)NC(=O)[C@H](CCCNC(=N)N)NC(=O)[C@H](CCCNC(=N)N)NC(=O)[C@H](CCCNC(=N)N)NC(=O)[C@H](CCCNC(=N)N)NC(=O)[C@H](CCCNC(=N)N)NC(=O)[C@H](CCCNC(=N)N)NC(=O)[C@H](CCCNC(=N)N)NC(=O)[C@H](CCCNC(=N)N)NC(=O)[C@H](CCCNC(=N)N)NC(=O)[C@H](CCCNC(=N)N)NC(=O)[C@H](CCCNC(=N)N)NC(=O)CNC(=O)[C@H](Cc1c[nH]c2ccccc12)NC(=O)[C@H](C)NC(=O)[C@H](CCCNC(=N)N)NC(=O)[C@H](CCCNC(=N)N)NC(=O)[C@H](CCCNC(=N)N)NC(=O)[C@H](CCCNC(=N)N)NC(=O)CNC(=O)CNC(=O)[C@H](CCCCN)NC(=O)[C@H](CCCNC(=N)N)NC(=O)[C@@H]1CCCN1C(=O)[C@H](N)CCCNC(=N)N)[C@@H](C)O)C(=O)O [SEQ ID NO: 11, dRPRKGGRRRR AWGRRRRRRR RRRRRRRAPR KRLTL] (H-[dR]PRKGGRRRRAWGRRRRRRRRRRRRRRAPRKRLTL-OH) | No toxicity | no toxicity | – | – | – | – | –
PRKGGSRRRAWGNQRYARLIRQAIESAPEKRLTLA (PRKGGSRRRAWGNQRYARLIRQAIESAPEKRLTLA; Based on Homo sapiens sequence) [SEQ ID NO: 12] | – | – | reversed | reversed | cleared senescent cells in kidneys | selectively decreased the viability | selectively decreased the viability
